Assay results as given in US20230131899A1, “INHIBITORS OF MICROBIALLY INDUCED AMYLOID” (Axial Therapeutics, Inc., priority 2020, published 2023).
pIC50: −log10 of the molar value. Like-named read-outs stand apart in the source and are kept apart here.

Assays:
[1] = tested on: CsgA gene expression (csgBAC promoter-GFP reporter) in E. coli UTI89; assay: In vitro live cell fluorescent reporter assay of CsgA transcription (Reporter Assay); assay type: cell-based; details: Escherichia coli; for pIC50: read-out: Reporter Assay Abs IC50 (activity range), median Abs IC50 in the CsgA reporter assay, class symbol; for IC50: read-out: Reporter Assay Abs IC50 (μM), median Abs IC50 in the CsgA reporter assay, N/A = maximum expression reduction is <50% of control
In short: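 Compounds at 0.14–100 μM (1% DMSO final) incubated 20 h at 27 °C in YESCA broth with UTI89 carrying a single-copy GFP reporter under the csgBAC intergenic promoter region, inoculum OD600 0.003. Fluorescence normalized to vehicle wells gave IC50 and 50%-of-vehicle concentration; OD600 reduction >10% flagged growth impact.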

[2] = tested on: CsgA expression in E. coli MC4100; assay: Monocolonized Mouse Model: csgA expression in fecal pellets by qRT-PCR; details: 30 mg/kg, day five of treatment, relative to mice treated with vehicle alone (FIGS. 4A-B)
[3] = tested on: CsgA expression in WT E. coli; assay: qRT-PCR of CsgA expression in WT E. coli; assay type: cell-based; details: previously observed

SMILES: CCCN1CC(C(=O)O)n2c(c(-c3cccc(C(F)(F)F)c3)c(Cc3cccc4ccccc34)cc2=O)S1(=O)=O (racemic) [Compound 016, 8-(naphthalen-1-ylmethyl)-6-oxo-2-propyl-9-(3-(trifluoromethyl)phenyl)-3,4-dihydro-2H,6H-pyrido[1,2-e][1,2,5]thiadiazine-4-carboxylic acid 1,1-dioxide]
- pIC50 [1]: 5.00 to 5.34
- IC50 [1]: 5 µM
- csgA expression in E. coli MC4100 monocolonized mice [2]: reduction of csgA expression

SMILES: O=C(O)C1CN(CCCCCO)S(=O)(=O)c2c(-c3cccc(C(F)(F)F)c3)c(Cc3cccc4ccccc34)c(NC3CCCC3)c(=O)n21 (stereo not drawn) [Compound 122, 7-(cyclopentylamino)-2-(5-hydroxypentyl)-8-(naphthalen-1-ylmethyl)-6-oxo-9-(3-(trifluoromethyl)phenyl)-3,4-dihydro-2H,6H-pyrido[1,2-e][1,2,5]thiadiazine-4-carboxylic acid 1,1-dioxide]
- pIC50 [1]: 5.35 to 5.89
- IC50 [1]: 1.9 µM

SMILES: Nc1c(Cc2cccc3ccccc23)c(-c2cccc(C(F)(F)F)c2)c2n(c1=O)C(C(=O)O)CS2(=O)=O (stereo not drawn) [Compound 023, 6-amino-7-(naphthalen-1-ylmethyl)-5-oxo-8-(3-(trifluoromethyl)phenyl)-2,3-dihydro-5H-thiazolo[3,2-a]pyridine-3-carboxylic acid 1,1-dioxide]
- pIC50 [1]: < 5.00
- IC50 [1]: 19.6 µM

SMILES: Nc1c(Cc2cccc3ccccc23)c(-c2cccc(C(F)(F)F)c2)c2n(c1=O)C(C(=O)O)CS2 (racemic) [Compound 020, 6-amino-7-(naphthalen-1-ylmethyl)-5-oxo-8-(3-(trifluoromethyl)phenyl)-2,3-dihydro-5H-thiazolo[3,2-a]pyridine-3-carboxylic acid]
- pIC50 [1]: 5.35 to 5.89
- IC50 [1]: 3.9 µM
- CsgA expression via qRT-PCR [3]: inhibit CsgA expression

SMILES: C=CCCN1CC(C(=O)O)n2c(c(-c3cccc(C(F)(F)F)c3)c(Cc3cccc4ccccc34)cc2=O)S1(=O)=O (stereo not drawn) [Compound 024, 2-(but-3-en-1-yl)-8-(naphthalen-1-ylmethyl)-6-oxo-9-(3-(trifluoromethyl)phenyl)-3,4-dihydro-2H,6H-pyrido[1,2-e][1,2,5]thiadiazine-4-carboxylic acid 1,1-dioxide]
- pIC50 [1]: 5.00 to 5.34
- IC50 [1]: 9.9 µM
